Assay results from publication PMC9995496, “A screen for MeCP2-TBL1 interaction inhibitors using a luminescence-based assay” (Scientific Reports, 2023).
Counter-ions that a name gives are not always drawn. Like-named read-outs stand apart in the source and are kept apart here.

Test system: PRKACA-PRKAR2A interaction (SmBiT-PRKACA / LgBiT-PRKAR2A), protein kinase A
Parameters: NanoLuc complementation counter-screen in cell extract, PRKACA with PRKAR2A, loss of luminescence, detects NanoLuc interference
Conditions: 0.5 h, 20 µM, inhibitor
[1] = counter-screen for NanoLuc interference

Row | SMILES | Inh (PKA) [1] | further results
1 | CCN[C@H]1CN(CCCOC)S(=O)(=O)c2sc(S(N)(=O)=O)cc21 [UM0118906:03, Brinzolamide] | -0.219% | –
2 | CCN[C@H]1C[C@H](C)S(=O)(=O)c2sc(S(N)(=O)=O)cc21 [UM0118923:03, Dorzolamide HCl] | -0.4651% | –
3 | O=P1(NCCCl)OCCCN1CCCl (centres unmarked) [UM0118931:03, Ifosfamide] | – | Inh (PKA): -0.3336%
4 | CS(=O)(=O)c1ccc([C@@H](O)[C@@H](CF)NC(=O)C(Cl)Cl)cc1 [UM0118980:03, Florfenicol] | -0.2471% | –
5 | Cc1c(OCC(F)(F)F)ccnc1C[S+]([O-])c1nc2ccccc2[nH]1 (centres unmarked) [UM0118982:03, Lansoprazole] | 1.885% | –
6 | Cc1c(OCC(F)(F)F)ccnc1C[S@@+]([O-])c1nc2ccccc2[nH]1 [UM0118982:04, Dexlansoprazole] | 2.726% | –
7 | CC(C)(Oc1ccc(C2CC2(Cl)Cl)cc1)C(=O)O (centres unmarked) [UM0119000:03, Ciprofibrate] | 9.84% | –
8 | CCOC(=O)c1ccc(OC(=O)CCCCCNC(=N)N)cc1 [UM0119043:03, Gabexate mesylate] | 2.691% | –
9 | Nc1ccc(O)c(C(=O)O)c1 [UM0119062:03, Mesalamine] | 8.926% | –
10 | CC(C)(C(=O)c1cccnc1)c1cccnc1 [UM0119067:03, Metyrapone] | 1.858% | –
11 | Cc1cccc(Nc2ccncc2S(=O)(=O)NC(=O)NC(C)C)c1 [UM0119116:03, Torsemide] | 21.46% | –
12 | O=C(O[C@@H]1Cc2c(O)cc(O)cc2O[C@@H]1c1cc(O)c(O)c(O)c1)c1cc(O)c(O)c(O)c1 [UM0119174:03, (-)-Epigallocatechin gallate (EGCG)] | 17.48% | –
13 | O=C1Cc2c([nH]c3ccc(Br)cc23)-c2ccccc2N1 [UM0119194:04, Kenpaullone] | 40.47% | –
14 | O=c1oc2c(O)c(O)cc3c(=O)oc4c(O)c(O)cc1c4c23 [UM0119370:03, Ellagic acid] | 2.639% | –
15 | CCCCCCCCCCC[C@@H](C[C@@H]1OC(=O)[C@H]1CCCCCC)OC(=O)[C@H](CC(C)C)NC=O [UM0119382:03, Orlistat] | -0.3481% | –
16 | C=CCc1ccc(O)c(-c2ccc(O)c(CC=C)c2)c1 [UM0119411:03, Honokiol] | 48.27% | –
17 | c1ccc2c(Cc3c[nH]c4ccccc34)c[nH]c2c1 [UM0119470:03, 3,3'-Diindolylmethane] | 34.9% | –
18 | Nc1ccncc1 [UM0119500:03, 4-Aminopyridine] | 0.4521% | –
19 | CC(=O)Oc1ccccc1C(=O)O [UM0119503:03, Aspirin (Acetylsalicylic acid)] | 1.275% | –
20 | CC(=O)N[C@@H](CS)C(=O)O [UM0119535:03, Acetylcysteine] | 1.097% | –
21 | COc1ccc(C(=O)N2CCCC2=O)cc1 [UM0119560:03, Aniracetam] | 4.422% | –
22 | NC(=O)c1ccccc1 [UM0119596:03, Benzamide] | -0.9754% | –
23 | O=C1CCc2cc(OCCCCc3nnnn3C3CCCCC3)ccc2N1 [UM0119639:03, Cilostazol] | 4.034% | –
24 | C[C@@](Cc1ccc(O)c(O)c1)(NN)C(=O)O [UM0119735:03, Carbidopa] | 2.512% | –

Row | SMILES | Inh (PKA) [1] | further results
25 | NCCc1ccc(O)c(O)c1 [UM0119875:03, Dopamine HCl] | 1.983% | –
26 | NCCc1c[nH]cn1 [UM0119882:03, Histamine 2HCl] | – | Inh (PKA) (counter-screen for NanoLuc interference, Inh (PKA)): 0.5416%
27 | O=S(=O)(c1cccc2c(I)cccc12)N1CCCNCC1 [UM0119920:03, ML-7 hydrochloride] | 17.89% | –
28 | COc1ccc2c(c1)c(CC(=O)N1CCOCC1)c(C)n2C(=O)c1ccc(Cl)cc1 [UM0119946:02, BML-190] | 40.28% | –
29 | Nc1nnc(-c2cccc(Cl)c2Cl)c(N)n1 [UM0119947:03, Lamotrigine] | 0.956% | –
30 | COc1cc2c(cc1O)CC[C@@H]1[C@@H]2CC[C@]2(C)[C@@H](O)CC[C@@H]12 [UM0119979:04, 2-Methoxyestradiol (2-MeOE2)] | 12.97% | –
31 | NC(=O)c1ncn([C@@H]2O[C@H](CO)[C@@H](O)[C@H]2O)c1O [UM0119983:03, Mizoribine] | -0.2089% | –
32 | CSC(=N)N [UM0119990:03, (S)-Methylisothiourea sulfate] | -0.9184% | –
33 | O=[N+]([O-])c1cccc2cn[nH]c12 [UM0120050:03, 7-Nitroindazole] | 2.182% | –
34 | CC(C)N(CCC(=O)c1ccc2ccccc2c1)Cc1ccccc1 [UM0120052:04, ZM 39923 HCl] | 18.59% | –
35 | CNC[C@H](O)c1cccc(O)c1 [UM0120096:03, Phenylephrine HCl] | 0.7851% | –
36 | S=C(S)N1CCCC1 [UM0120164:03, Pyrrolidinedithiocarbamate ammonium] | 13.75% | –
37 | NCCS(=O)(=O)O [UM0120232:03, Taurine] | -1.533% | –
38 | N#CC(C#N)=Cc1ccc(O)c(O)c1 [UM0120250:03, AG-18] | 48.6% | –
39 | CC(C)(C)c1cc(C=C(C#N)C#N)cc(C(C)(C)C)c1O [UM0120315:03, Tyrphostin 9] | 80.34% | –
40 | Nc1nccs1 [UM0120610:02, Aminothiazole] | 1.156% | –
41 | O=c1oc2cc(O)ccc2s1 [UM0120621:02, Tioxolone] | 1.741% | –
42 | N[C@@H](CCC(=O)N[C@@H](CS)C(=O)NCC(=O)O)C(=O)O [UM0120654:03, L-Glutathione Reduced] | -0.7865% | –
43 | O=C(O)c1cc(O)c(O)c(O)c1 [UM0120666:03, Gallic acid] | -0.4526% | –
44 | Cc1cc(O)c2c(c1)C(=O)c1cccc(O)c1C2=O [UM0121046:03, Chrysophanol] | 14.51% | –
45 | CN(C)CCC[C@@]1(c2ccc(F)cc2)OCc2cc(C#N)ccc21 [UM0121246:02, Escitalopram Oxalate] | -0.3205% | –
46 | CCC(=O)NCC[C@@H]1CCc2ccc3c(c21)CCO3 [UM0121254:03, Ramelteon] | 6.005% | –
47 | COc1ccnc(C[S+]([O-])c2nc3cc(OC(F)F)ccc3[nH]2)c1OC (centres unmarked) [UM0121277:03, Pantoprazole] | -0.2371% | –
48 | Cc1ccc(-c2cc(C(F)(F)F)nn2-c2ccc(S(N)(=O)=O)cc2)cc1 [UM0121289:03, Celecoxib] | 16.21% | –

Row | SMILES | Inh (PKA) [1] | further results
49 | Cc1onc(-c2ccccc2)c1-c1ccc(S(N)(=O)=O)cc1 [UM0121300:03, Valdecoxib] | 9.885% | –
50 | CN(CCOc1ccc(CC2SC(=O)NC2=O)cc1)c1ccccn1 (centres unmarked) [UM0121306:03, Rosiglitazone] | 12.71% | –
51 | CN(C)CCc1c[nH]c2ccc(C[C@H]3COC(=O)N3)cc12 [UM0121308:03, Zolmitriptan] | -0.4605% | –
52 | CCOC(=O)[C@H](CCc1ccccc1)N[C@H]1CCc2ccccc2N(CC(=O)O)C1=O [UM0121340:03, Benazepril HCl] | -0.4329% | –
53 | O=C(O)CC(O)(CC(=O)O)C(=O)O [UM0121350:03, Lithium Citrate] | -1.116% | –
54 | Oc1c(Cl)cc(Cl)c(Cl)c1Cc1c(O)c(Cl)cc(Cl)c1Cl [UM0121388:04, Hexachlorophene] | 52.78% | –
55 | CC[C@H]1OC(=O)[C@H](C)[C@@H](O[C@H]2C[C@@](C)(OC)[C@@H](O)[C@H](C)O2)[C@H](C)[C@@H](O[C@@H]2O[C@H](C)C[C@H](N(C)C)[C@H]2O)[C@](C)(O)C[C@@H](C)CN(C)[C@H](C)[C@@H](O)[C@]1(C)O [UM0121404:03, Azithromycin] | 0.6112% | –
56 | CC[C@H]1OC(=O)[C@H](C)[C@@H](O[C@H]2C[C@@](C)(OC)[C@@H](O)[C@H](C)O2)[C@H](C)[C@@H](O[C@@H]2O[C@H](C)C[C@H](N(C)C)[C@H]2O)[C@](C)(OC)C[C@@H](C)C(=O)[C@H](C)[C@@H](O)[C@]1(C)O [UM0121462:03, Clarithromycin] | 0.9252% | –
57 | COC(=O)N[C@H](C(=O)N1CCC[C@H]1c1ncc(-c2ccc(-c3ccc(-c4cnc([C@@H]5CCCN5C(=O)[C@@H](NC(=O)OC)C(C)C)[nH]4)cc3)cc2)[nH]1)C(C)C [UM0125917:02, Daclatasvir (BMS-790052)] | 3.854% | –
58 | O=c1cc(-c2cccc3c2Sc2ccccc2S3)oc(N2CCOCC2)c1 [UM0127803:03, KU 55933] | 14.3% | –
59 | CC(C)(C)c1cc(C=C(C#N)C#N)cc(Br)c1O [UM0127805:02, AG-1024] | 81.26% | –
60 | O=c1[nH]c2ccccc2n1C1CCN(Cc2ccc(-c3[nH]c4cc5ncnc5cc4nc3-c3ccccc3)cc2)CC1 [UM0127809:02, AKT inhibitor VIII] | 16.69% | –
61 | c1cc(-c2cnn3cc(-c4ccc(OCCN5CCCCC5)cc4)cnc23)ccn1 [UM0127814:02, Dorsomorphin] | 19.2% | –
62 | CN(C)CCCn1cc(C2=C(c3c[nH]c4ccccc34)C(=O)NC2=O)c2ccccc21 [UM0127819:02, GF 109203X] | 67.69% | –
63 | NC(=O)c1ccc(-c2nc(-c3ccc4c(c3)OCCO4)c(-c3ccccn3)[nH]2)cc1 [UM0127827:02, D4476] | 37.52% | –
64 | COc1ccc(CNc2nc(N(CCO)CCO)nc3c2ncn3C(C)C)cc1 [UM0127838:02, CVT-313] | 6.845% | –
65 | Nc1[nH]nc2nnc(-c3c(-c4ccccc4)nn4ccccc34)cc12 [UM0127848:03, FR 180204] | 1.354% | –
66 | COc1ccc(C(=O)Nc2sc3c(c2C(N)=O)CCCC3)cc1OC [UM0127852:02, TCS 359] | 19.65% | –
67 | COc1ccc(COc2ccc(Cc3cnc(N)nc3N)cc2OC)cc1 [UM0127855:02, GW2580] | 7.237% | –
68 | Cn1sc(=O)n(Cc2ccccc2)c1=O [UM0127856:02, TDZD-8] | 41.7% | –
69 | COc1ccc(CNC(=O)Nc2ncc([N+](=O)[O-])s2)cc1 [UM0127858:02, AR-A014418] | 66.01% | –
70 | Nc1cccc(-c2cc3c(Oc4cccc(O)c4)ncnc3[nH]2)c1 [UM0127862:03, TWS119] | 24.46% | –
71 | COc1ccc2c(c1)c(C1=C(c3c[nH]c4ccccc34)C(=O)NC1=O)cn2CCCN(C)C [UM0127865:02, Go 6983] | 49.99% | –
